Active and inactive are the calls of the source.
Tests used:
[1] = system: Staphylococcus aureus; experiment: Inhibition of FabB/FabF in methicillin-resistant Staphylococcus aureus 3100 clinical isolate assessed as antibacterial activity after 16 hrs by agar dilution method
[2] = system: Staphylococcus aureus; experiment: Inhibition of FabB/FabF in methicillin-sensitive Staphylococcus aureus assessed as antibacterial activity after 16 hrs by agar dilution method
[3] = system: Staphylococcus aureus; experiment: Inhibition of FabB/FabF in methicillin-resistant Staphylococcus aureus 3140 clinical isolate assessed as antibacterial activity after 16 hrs by agar dilution method
[4] = system: Staphylococcus aureus; experiment: Inhibition of FabB/FabF in methicillin-resistant Staphylococcus aureus 2962 clinical isolate assessed as antibacterial activity after 16 hrs by agar dilution method
[5] = system: Staphylococcus aureus; experiment: Inhibition of FabB/FabF in methicillin-resistant Staphylococcus aureus assessed as antibacterial activity after 16 hrs by agar dilution method
[6] = system: Staphylococcus aureus; experiment: Inhibition of FabB/FabF in methicillin-resistant Staphylococcus aureus 3114 clinical isolate assessed as antibacterial activity after 16 hrs by agar dilution method
[7] = system: Staphylococcus aureus; experiment: Inhibition of FabB/FabF in methicillin-resistant Staphylococcus aureus 3103 clinical isolate assessed as antibacterial activity after 16 hrs by agar dilution method
[8] = system: Staphylococcus aureus; experiment: Inhibition of FabB/FabF in Staphylococcus aureus ATCC 29213 assessed as antibacterial activity after 16 hrs by agar dilution method
[9] = system: Staphylococcus aureus; experiment: Inhibition of FabB/FabF in methicillin-resistant Staphylococcus aureus 2953 clinical isolate assessed as antibacterial activity after 16 hrs by agar dilution method
[10] = system: Staphylococcus aureus; experiment: Inhibition of FabB/FabF in methicillin-resistant Staphylococcus aureus 3150 clinical isolate assessed as antibacterial activity after 16 hrs by agar dilution method
[11] = system: Staphylococcus aureus; experiment: Inhibition of FabB/FabF in methicillin-resistant Staphylococcus aureus 3090 clinical isolate assessed as antibacterial activity after 16 hrs by agar dilution method
[12] = system: Staphylococcus aureus; experiment: Inhibition of FabB/FabF in methicillin-resistant Staphylococcus aureus 2984 clinical isolate assessed as antibacterial activity after 16 hrs by agar dilution method
[13] = system: Staphylococcus aureus; experiment: Inhibition of FabB/FabF in methicillin-resistant Staphylococcus aureus 2980 clinical isolate assessed as antibacterial activity after 16 hrs by agar dilution method
[14] = system: Staphylococcus aureus; experiment: Inhibition of FabB/FabF in methicillin-resistant Staphylococcus aureus 3065 clinical isolate assessed as antibacterial activity after 16 hrs by agar dilution method
[15] = system: Staphylococcus aureus; experiment: Inhibition of FabB/FabF in methicillin-sensitive Staphylococcus aureus 2954 clinical isolate assessed as antibacterial activity after 16 hrs by agar dilution method
[16] = system: Staphylococcus aureus; experiment: Inhibition of FabB/FabF in methicillin-resistant Staphylococcus aureus 3196 clinical isolate assessed as antibacterial activity after 16 hrs by agar dilution method
[17] = system: Staphylococcus aureus; experiment: Inhibition of FabB/FabF in methicillin-resistant Staphylococcus aureus 2959 clinical isolate assessed as antibacterial activity after 16 hrs by agar dilution method
[18] = system: Staphylococcus aureus; experiment: Inhibition of FabB/FabF in methicillin-resistant Staphylococcus aureus 3110 clinical isolate assessed as antibacterial activity after 16 hrs by agar dilution method
[19] = system: Staphylococcus aureus; experiment: Inhibition of FabB/FabF in methicillin-resistant Staphylococcus aureus 2951 clinical isolate assessed as antibacterial activity after 16 hrs by agar dilution method
[20] = system: Staphylococcus aureus; experiment: Inhibition of FabB/FabF in methicillin-resistant Staphylococcus aureus 3086 clinical isolate assessed as antibacterial activity after 16 hrs by agar dilution method
[21] = system: Staphylococcus aureus; experiment: Inhibition of FabB/FabF in methicillin-resistant Staphylococcus aureus 3094 clinical isolate assessed as antibacterial activity after 16 hrs by agar dilution method
[22] = system: Staphylococcus aureus; experiment: Inhibition of FabB/FabF in methicillin-resistant Staphylococcus aureus 3108 clinical isolate assessed as antibacterial activity after 16 hrs by agar dilution method
[23] = system: Staphylococcus aureus; experiment: Inhibition of FabB/FabF in methicillin-resistant Staphylococcus aureus 3079 clinical isolate assessed as antibacterial activity after 16 hrs by agar dilution method
[24] = system: Staphylococcus aureus; experiment: Inhibition of FabB/FabF in methicillin-resistant Staphylococcus aureus 3188 clinical isolate assessed as antibacterial activity after 16 hrs by agar dilution method
[25] = system: Staphylococcus aureus; experiment: Inhibition of FabB/FabF in methicillin-resistant Staphylococcus aureus 2985 clinical isolate assessed as antibacterial activity after 16 hrs by agar dilution method
[26] = system: Staphylococcus aureus; experiment: Inhibition of FabB/FabF in methicillin-resistant Staphylococcus aureus 3082 clinical isolate assessed as antibacterial activity after 16 hrs by agar dilution method
[27] = system: Staphylococcus aureus; experiment: Inhibition of FabB/FabF in methicillin-resistant Staphylococcus aureus 3097 clinical isolate assessed as antibacterial activity after 16 hrs by agar dilution method
[28] = system: Staphylococcus aureus; experiment: Inhibition of FabB/FabF in methicillin-resistant Staphylococcus aureus 2968 clinical isolate assessed as antibacterial activity after 16 hrs by agar dilution method
[29] = system: Staphylococcus aureus; experiment: Inhibition of FabB/FabF in methicillin-resistant Staphylococcus aureus 2976 clinical isolate assessed as antibacterial activity after 16 hrs by agar dilution method
[30] = system: Staphylococcus aureus; experiment: Inhibition of FabB/FabF in methicillin-resistant Staphylococcus aureus 3093 clinical isolate assessed as antibacterial activity after 16 hrs by agar dilution method
[31] = system: Staphylococcus aureus; experiment: Inhibition of FabB/FabF in methicillin-resistant Staphylococcus aureus 3111 clinical isolate assessed as antibacterial activity after 16 hrs by agar dilution method
[32] = system: Staphylococcus aureus; experiment: Inhibition of FabB/FabF in methicillin-resistant Staphylococcus aureus 3193 clinical isolate assessed as antibacterial activity after 16 hrs by agar dilution method
[33] = system: Staphylococcus aureus; experiment: Inhibition of FabB/FabF in methicillin-resistant Staphylococcus aureus 3181 clinical isolate assessed as antibacterial activity after 16 hrs by agar dilution method
[34] = system: Staphylococcus aureus; experiment: Inhibition of FabB/FabF in methicillin-resistant Staphylococcus aureus 3056 clinical isolate assessed as antibacterial activity after 16 hrs by agar dilution method
[35] = system: Staphylococcus aureus; experiment: Inhibition of FabB/FabF in methicillin-resistant Staphylococcus aureus 3182 clinical isolate assessed as antibacterial activity after 16 hrs by agar dilution method
[36] = system: Staphylococcus aureus; experiment: Inhibition of FabB/FabF in methicillin-sensitive Staphylococcus aureus 2955 clinical isolate assessed as antibacterial activity after 16 hrs by agar dilution method
[37] = system: Staphylococcus aureus; experiment: Inhibition of FabB/FabF in methicillin-resistant Staphylococcus aureus 3161 clinical isolate assessed as antibacterial activity after 16 hrs by agar dilution method
[38] = system: Staphylococcus aureus; experiment: Inhibition of FabB/FabF in methicillin-resistant Staphylococcus aureus 3158 clinical isolate assessed as antibacterial activity after 16 hrs by agar dilution method
[39] = system: Staphylococcus aureus; experiment: Inhibition of FabB/FabF in methicillin-resistant Staphylococcus aureus 3156 clinical isolate assessed as antibacterial activity after 16 hrs by agar dilution method
[40] = system: Staphylococcus aureus; experiment: Antibacterial activity against methicillin-resistant Staphylococcus aureus infected in C57BL/6J mouse model of peritonitis assessed as mouse survival at 10 mg/kg, ip dosed at 1 hr and 5 hrs post infection and measured for 7 days relative to control; assay type: functional
[41] = system: Staphylococcus aureus; experiment: Inhibition of FabB/FabF in methicillin-resistant Staphylococcus aureus 2978 clinical isolate assessed as antibacterial activity after 16 hrs by agar dilution method

C[C@]12C[C@@]34C=C(SC5CCCCC5)C(=O)[C@@](C)(CCC(=O)Nc5c(O)ccc(C(=O)O)c5O)[C@@H]3[C@H](C[C@@H]1C4)O2
> 60%: survival at 10 mg/kg [40]
active: inhibition [1] | inhibition [3] | inhibition [4] | inhibition [6] | inhibition [7] | inhibition [9] | inhibition [10] | inhibition [11] | inhibition [12] | inhibition [13] | inhibition [14] | inhibition [15] | inhibition [16] | inhibition [17] | inhibition [18] | inhibition [19] | inhibition [20] | inhibition [21] | inhibition [22] | inhibition [23] | inhibition [24] | inhibition [25] | inhibition [26] | inhibition [27] | inhibition [28] | inhibition [29] | inhibition [30] | inhibition [31] | inhibition [32] | inhibition [33] | inhibition [34] | inhibition [35] | inhibition [36] | inhibition [37] | inhibition [38] | inhibition [39] | inhibition [41]
0.25 µg/mL: MIC [2] | MIC [5]
0.5 µg/mL: MIC [8]

C[C@]12C[C@@]34C=CC(=O)[C@@](C)(CCC(=O)Nc5c(O)ccc(C(=O)O)c5O)[C@@H]3[C@H](C[C@@H]1C4)O2
1 µg/mL: MIC [1] | MIC [3] | MIC [4] | MIC [6] | MIC [7] | MIC [8] | MIC [9] | MIC [10] | MIC [11] | MIC [12] | MIC [13] | MIC [14] | MIC [15] | MIC [16] | MIC [17] | MIC [18] | MIC [19] | MIC [20] | MIC [21] | MIC [22] | MIC [23] | MIC [24] | MIC [25] | MIC [26] | MIC [27] | MIC [28] | MIC [29] | MIC [30] | MIC [31] | MIC [32] | MIC [33] | MIC [34] | MIC [35] | MIC [36] | MIC [37] | MIC [38] | MIC [39] | MIC [41]
0.5 µg/mL: MIC [2] | MIC [5]
inactive: Survival [40]

Reference: ChEMBL document CHEMBL4359841, “Late-Stage Functionalization of Platensimycin Leading to Multiple Analogues with Improved Antibacterial Activity in Vitro and in Vivo” (2019)
